Measured values: article PMC9445589, “Apolipoprotein E mimetic peptide COG1410 combats pandrug-resistant Acinetobacter baumannii” (Frontiers in Microbiology, 2022)
In brackets after ≈: the same amount, converted by molar mass. Several values for one entry are separate records, joined by “and”; a condition that tells them apart may be missing. Equal values may be shown once. Read-outs that look alike come from different tables or passages of the source.

Experiments:
[1] = test system: PDR Acinetobacter baumannii YQ4; experiment: microbe, parasite or virus in culture; format: cell-based
Protocol: Strain stocks were maintained at −80°C in 10% glycerol. Bacteria were streaked on fresh plates before each experiment. Most of them were cultured in LB broth containing 10 g/L NaCl at 37°C, except for Mycobacteria in 7H9 broth and Enterococcus in BHI broth. Porphyromonas gingivalis was cultured in BHI broth supplemented with 1 μg/ml vitamin k1, 5 μg/ml hemin, and 5 mg/ml L-cysteine hydrochloride at 37°C in the anaerobic chamber. The minimal inhibitory concentrations (MICs) of antimicrobials were determined using the microdilution method in the corresponding broth.
The pandrug-resistant A. baumannii YQ4 was collected from the clinical laboratory of the second hospital in Nanjing. The complete genome was sequenced by Nanopore, and the data were deposited in the GenBank with accession number CP053033.

[2] = test system: PDR A. baumannii strain YQ4; experiment: checkerboard synergy, fractional inhibitory concentration (FIC); format: cell-based, Acinetobacter baumannii; settings: checkerboard method, 37°C, 20 h, two independent experiments
Escherichia coli = settings: cited from earlier work
From the text: (§1) Supplement Table_1.DOCX, table 1: Table S1. Antibacterial effect of ApoE-derived peptides. | column: MIC (μM) || However, the current pipeline of novel antibiotic development is stagnant, which could not keep pace with these evolving pathogens. The pharmaceutical field turns to seek non-conventional anti-infective agents. The antimicrobial peptides (AMPs) have drawn a lot of attention as novel chemotherapeutic candidates because of their unique mechanisms of action (Mahlapuu et al., [2016]). It is known that the sources of AMPs are diverse, ranging from prokaryotes to humans (Zhang and Gallo, [2016]). One of the most promising AMPs is the protein mimetic peptide, which originates from a functional protei ...

Pseudomonas aeruginosa = settings: cited from earlier work
From the text: as §1

Staphylococcus aureus = settings: cited from earlier work
From the text: (§2) Supplement Table_1.DOCX, table 1: Table S1. Antibacterial effect of ApoE-derived peptides. | column: MIC (μM)

Acinetobacter baumannii = settings: ref (1); cited from earlier work
From the text: as §1

Enterococcus faecium = settings: ref (1); cited from earlier work
From the text: as §2

Klebsiella pneumoniae = settings: cited from earlier work
From the text: as §2

A. baumannii = settings: ref De Breij et al., [2018], cited from earlier work
Protocol: The major challenge for the therapeutic application of AMP is the degradation or inactivation in plasma (Dijksteel et al., [2021]). The bactericidal efficacy of COG1410 was further assessed in plasma. The LC99.9 values of COG1410 in PBS and 50% pooled plasma were 1.4 and 5.6 μM, respectively. This was even better than LL-37-derived AMP, SAAP-148, of which the corresponding LC99.9 values were 1.6 and 12.8 μM, against A. baumannii, respectively (De Breij et al., [2018]).

A. baumannii YQ4 [3] = experiment: scanning electron microscopy (SEM) of treated cells; format: cell-based, Acinetobacter baumannii
Protocol: The log-phase culture of A. baumannii YQ4 was prepared as described above, harvested, and washed once with PBS. The pellets were suspended in PBS supplemented with 1 × COG1410 (16 μg/ml) or 1 × polymyxin B (16 μg/ml) and incubated at 37°C for 30 min. The untreated culture was used as a positive control to observe the morphology of the intact cell. […] After washing three times with PBS, the cells were post-fixed in 1% osmium at 4 °C for 1 h. After washing in distilled water for 1 h, the bacteria were dehydrated in the ascending concentrations of ethanol. Finally, these samples were transferred to ThermoFisher Quattro SEM for image collection after tert-butanol freeze-drying and sputter coating.

A. baumannii YQ4 [4] = experiment: Live/Dead BacLight SYTO-9/PI staining, confocal microscopy; format: cell-based, Acinetobacter baumannii
Protocol: The damage to the cytoplasmic membrane was determined as described previously (Farkas et al., [2017]), with the Live/Dead BacLight bacterial viability kit (Invitrogen L7012). The log-phase culture of A. baumannii YQ4 was washed two times and suspended in PBS with the final OD600 of 0.1. […] Then, the cells were stained with 7.5 μM SYTO-9 and 30 μM propidium iodide (PI) in dark for 15 min. In total, 5 μl of culture was spotted on a clean slide coated with a thin layer of 1% agarose. The fluorescence was observed by Olympus FV3000 confocal laser scanning microscope. For SYTO-9, the excitation and emission were 483 and 503 nm, respectively. For PI, the excitation and emission were 493 and 636 nm, respectively.

A. baumannii YQ4 [5] = experiment: ATP leak assay; format: cell-based, Acinetobacter baumannii; settings: 16 μg/ml COG1410, 16 μg/ml polymyxin B or 32 μg/ml tigecycline (1× MIC), PBS, 37°C, 30 min
Protocol: ATP leak assay was performed using the Enhanced ATP Assay Kit of Beyotime ([…]) according to the manufacturer's manual. […] The supernatant was harvested and used for the measurement of ATP levels. In total, 100 μl of supernatant was mixed with 100 μl of working solution, and the chemiluminescence was measured by using a Biotek Synergy H1 plate reader. The untreated sample was set as a negative control. The experiments were performed in triplicate.

A. baumanii YQ4 = experiment: induction of resistance through serial passage; settings: sub-MIC exposure, 55 passages
A. baumannii YQ4 [6] = experiment: transmission electron microscopy (TEM) of treated cells
[7] = Acinetobacter baumannii, Table 2, agent alone, PDR A. baumannii strain YQ4, unit not in the table, μg/ml, read-out: MIC

NCC[C@H](O)C(=O)N[C@@H]1C[C@H](N)[C@@H](O[C@H]2O[C@H](CN)[C@@H](O)[C@H](O)[C@H]2O)[C@H](O)[C@H]1O[C@H]1O[C@H](CO)[C@@H](O)[C@H](N)[C@H]1O [AMI, amikacin]
MIC [1, 7]: > 1020 µg/mL | FIC with COG1410 [2]: >1

CC(C)(O/N=C(\C(=O)N[C@@H]1C(=O)N2C(C(=O)[O-])=C(C[n+]3ccccc3)CS[C@H]12)c1csc(N)n1)C(=O)O [CAZ, ceftazidime]
MIC ([1]; Acinetobacter baumannii): 512 µg/mL (≈ 937 µM) | FIC with COG1410 [2]: 0.31

O=C(O)c1cn(C2CC2)c2cc(N3CCNCC3)c(F)cc2c1=O [CIP, ciprofloxacin]
MIC ([1]; Acinetobacter baumannii): 256 µg/mL (≈ 773 µM) | FIC with COG1410 [2]: 0.8

C[C@@H](O)[C@H]1C(=O)N2C(C(=O)O)=C(S[C@@H]3CN[C@H](C(=O)N(C)C)C3)[C@H](C)[C@H]12 [MERO, meropenem]
MIC [1, 7]: 32 µg/mL (≈ 83.4 µM) | FIC with COG1410 [2]: 0.56

CN(C)[C@@H]1C(O)=C(C(N)=O)C(=O)[C@@]2(O)C(O)=C3C(=O)c4c(O)cccc4[C@@](C)(O)[C@H]3C[C@@H]12 [TET, tetracycline]
MIC [1, 7]: 1020 µg/mL (≈ 2300 µM) | FIC with COG1410 [2]: 0.31

CN(C)c1cc(NC(=O)CNC(C)(C)C)c(O)c2c1C[C@H]1C[C@H]3[C@H](N(C)C)C(O)=C(C(N)=O)C(=O)[C@@]3(O)C(O)=C1C2=O [TGC, tigecycline]
MIC [1, 7]: 32 µg/mL (≈ 54.6 µM) | FIC with COG1410 [2]: 1.06

ApoE130−162: fragment containing the receptor-binding domain of ApoE (130–162) (TEELRVRLASHLRKLRKRLLRDADDLQKRLAVY; UniProt P02649 148-180, looked up, fragment)
antibacterial activity, in words (Escherichia coli; ref Azuma et al., [2000]): active | antibacterial activity, in words (Pseudomonas aeruginosa; compared with Escherichia coli, ref Azuma et al., [2000]): to a lesser extent

LRKLRKRLL [ApoE141-149, ApoE-derived peptide, location 141-149]
MIC, Pa (Pseudomonas aeruginosa; ref (3)): 30 µM | MIC, Sa (Staphylococcus aureus; ref (3)): void (“void” indicates that the MIC is more than 100 μM)

LRKLRKRLLLRKLRKRLL [ApoEp, ApoE-derived peptide, locations 141-149+141-149]
MIC, Pa (Pseudomonas aeruginosa; ref (1, 3)): 5 µM | MIC, Sa (Staphylococcus aureus; ref (1, 3)): 35 µM

LRKLRKRLVRLASHLRKLRKRLL [ApoE23, ApoE-derived peptide, locations 141-148+135-149]
MIC, Ab (Acinetobacter baumannii): 2 µM and 2.0 µM | MIC, Ec (Escherichia coli; ref (1)): 2.0 µM | MIC, Pa (Pseudomonas aeruginosa; ref (1)): 2.7 µM | MIC, Ef (Enterococcus faecium): void (“void” indicates that the MIC is more than 100 μM) | MIC, Sa (Staphylococcus aureus; ref (1)): 5.4 µM

LRVRLASHLRKLRKRLL [COG133, ApoE-derived peptide, 133–149 of ApoE]
MIC, Pa (Pseudomonas aeruginosa; ref (5)): 25/50 | MIC, Kp (Klebsiella pneumoniae; ref (5)): 3.12 µM | MIC, Sa (Staphylococcus aureus; ref (5)): void (“void” indicates that the MIC is more than 100 μM)

LRVRLASHLRKLRKRLLR [sApoE133-150, ApoE-derived peptide, location 133-150]
MIC, Pa (Pseudomonas aeruginosa; ref (5)): 25/50 | MIC, Kp (Klebsiella pneumoniae; ref (5)): 6.25 µM | MIC, Sa (Staphylococcus aureus; ref (5)): 3.12 µM

LRVRLASHLRKLRKRLLRDADDLQKRLAVY [ApoE30, ApoE-derived peptide, location 133-162]
MIC, Ec (Escherichia coli; ref (2)): 1.3 µM | MIC, Pa (Pseudomonas aeruginosa; ref (2)): 8.1 µM | MIC, Sa (Staphylococcus aureus; ref (2)): 16.2 µM

SAAP-148
LC99.9 (A. baumannii; 50% pooled plasma): 12.8 µM | LC99.9 (A. baumannii; PBS): 1.6 µM

WRKWRKRWWWRKWRKRWW [ApoEp-W, ApoE-derived peptide, locations 141-149+141-149]
MIC, Kp (Klebsiella pneumoniae; ref (4)): <3.3 µM | MIC, Sa (Staphylococcus aureus; ref (4)): <3.3 µM

gentamycin [GM]
MIC ([1]; Table 2, agent alone, PDR A. baumannii strain YQ4, unit not in the table, μg/ml): >1,024 μg/ml | FIC with COG1410 [2]: >1

polymyxin B [reference compound]
cell morphology by SEM (A. baumannii YQ4 [3]): cell lysis and release of cell contents | SYTO-9/PI staining of treated cells (A. baumannii YQ4 [4]): red fluorescence | ATP leak (extracellular ATP) (A. baumannii YQ4 [5]): released more ATP compared to untreated cells | increase of MIC after serial passage (A. baumanii YQ4): 64 fold | cell membrane integrity by TEM (A. baumannii YQ4 [6]): collapse of cell walls in most of the cells
